From patent publication US6376510B1, “Neuromuscular relaxants” (Newlaxant LLC, priority 1997, dated 2002)
Where two headings read alike, the source gives them in different places.

Legend:
[1] = system: anesthetized rats (evoked responses of anterior tibial muscle); test: In vivo neuromuscular block and cardiovascular side effects, anesthetized rat (Example 8, Table 3); settings: for Onset: time to 80-85% neuromuscular block
Excerpt: The neuromuscular blocking activity and other effects (e.g. cardiovascular side effects) of selected agents were investigated on several different experimental animals. Justification for this approach lies in the commonly known fact that the pharmacodynamic and pharmacokinetic properties of these agents are markedly variable from species to species. Therefore, the most important aspects of the projected therapeutic utility of these agents, e.g., neuromuscular blocking potency, onset and duration of action, and side effects cannot be ascertained in “in vitro” preparations or by using only one species of animals.
(§1) a) Adult, male albino rats were anesthetized with pentobarbital injected intraperitoneally. The trachea was cannulated for artificial respiration via a small animal respirator. The carotid artery was cannulated for recording blood pressure via a transducer and heart rate by a cardiotachograph on a polygraph. One external jugular vein was cannulated for i.v. drug administration. Neuromuscular function was monitored by electromyography, recording evoked responses from the anterior tibial muscle as a result of supramaximal nerve stimuli consisting of single or “train-of-four” rectangular pulses of 0.1-0.2 msec duration every 10-12 seconds, delivered to the sciatic or common peroneal nerve by a laboratory nerve stimulator. Another mode of stimulation included repeated single stimuli delivered at 0.1 Hz or 1 Hz. […] The agents were dissolved in physiologic saline and injected intravenously at appropriate time intervals. The intensity, onset, and duration of neuromuscular block and its type were determined with each agent. Through administering several doses, the doses corresponding to 50%, 80% and 90% neuromuscular block were determined. All agents were compared with selected standard neuromuscular blocking compounds, e.g. succinylcholine, pancuronium, mivacurium, or rocuronium.
(§2) Onset=time in minutes to 80-85% neuromuscular block.
(§3) RI=recovery index, minutes, spontaneous recovery, 25-75% neuromuscular response.
(§4) VB=vagal block, %, at 80-85% neuromuscular blocking dose.
(§5) ΔHR=change in heart rate, %, at 80-85% neuromuscular blocking dose.
(§6) ΔBP=change in arterial blood pressure, %, at 80-85% neuromuscular blocking dose.

[2] = system: anesthetized cats (evoked responses of anterior tibial muscle); test: animal or person; settings: for RI (recovery index): spontaneous recovery, 25-75% neuromuscular response; for Onset: time to 80-85% neuromuscular block
Excerpt: as §1, §2, §3, §4, §5, §6
b) Adult cats were anesthetized with a mixture of 70 mg/kg alpha chloralose and 0.5 g/kg ethylurethane intraperitoneally. One thigh was fixed in a vertical position by means of a pin at the lower end of the femur. Needle electrodes were placed on the sciatic or the common peroneal nerve. A tendon of the anterior tibial muscle was attached to a force transducer and the muscle responses evoked, as described under a), were recorded. Both electromyographic and mechanomyographic responses can be quantified. Blood pressure and heart rate changes were recorded from appropriately cannulated arteries via a blood pressure transducer and cardiotachograph.

[3] = system: anesthetized juvenile pigs; test: animal or person; assay type: in vivo; settings: pig; for ED50: intravenous dose causing 50% neuromuscular block; for RI (recovery index): spontaneous recovery, 25-75% neuromuscular response; for Onset: time to 80-85% neuromuscular block
Excerpt: (§7) Both electromyographic and mechanomyographic responses can be quantified.
(§8) The techniques described under a) and b) were employed in other species as needed with the modification that juvenile pigs were initially anesthetized with inhalation of halothane (Table 5) and monkeys were initially sedated with intramuscular ketamine injections prior to inducing and maintaining general anesthesia using pentobarbital and propofol administered intravenously (Table 6).

[4] = system: anesthetized monkeys; test: In vivo neuromuscular block and cardiovascular side effects, monkey (Example 8, Table 6); settings: for ED50: intravenous dose causing 50% neuromuscular block; for RI (recovery index): spontaneous recovery, 25-75% neuromuscular response; for Onset: time to 80-85% neuromuscular block
Excerpt: as §7, §8

[5] = system: rabbits; test: In vivo neuromuscular block and cardiovascular side effects, rabbit (Example 8, Table 7); settings: for ED50: intravenous dose causing 50% neuromuscular block; for RI (recovery index): spontaneous recovery, 25-75% neuromuscular response; for Onset: time to 80-85% neuromuscular block
[6] = rat, intravenous dose causing 50% neuromuscular block
[7] = rat, spontaneous recovery, 25-75% neuromuscular response
[8] = cat, at 80-85% neuromuscular blocking dose
[9] = at 80-85% neuromuscular blocking dose
[10] = Oryctolagus cuniculus, read-out: ED50
[11] = rat, at 80-85% neuromuscular blocking dose

Row | SMILES | VB (vagal block) ([1]; rat, in vivo) [%] | ΔBP (change in arterial blood pressure) ([1]; rat, in vivo) [%] | ΔH (change in heart rate) ([1]; rat, in vivo) [%] | ED50 [1, 6] [mg/kg] | RI (recovery index) [1, 7] [min] | Onset ([1]; rat) [min] | RI (recovery index) ([2]; cat) [min] | Onset ([2]; cat) [min] | VB (vagal block) ([3]; in vivo) [%] | ΔBP (change in arterial blood pressure) ([3]; in vivo) [%] | ΔH (change in heart rate) ([3]; in vivo) [%] | ED50 [3] [mg/kg] | RI (recovery index) [3] [min] | Onset [3] [min] | RI (recovery index) [4] [min] | Onset [4] [min] | ΔBP (change in arterial blood pressure) ([5]; in vivo) [%] | ΔH (change in heart rate) ([5]; in vivo) [%] | RI (recovery index) [5] [min] | Onset [5] [min] | other results
1 | CC(=O)Oc1ccc(C[N+]2(C)C3CCCC2CC(OC(=O)CCCCC(=O)OC2CC4CCCC(C2)[N+]4(C)Cc2ccc(OC(C)=O)c(OC(C)=O)c2)C3)cc1OC(C)=O.[Br-].[Br-] (centres unmarked) [bis[N-(3,4-diacetoxybenzyl)granataninium-3-yl]adipate dibromide] | 5 | 0 | 0 | 0.14 | 0.4 | 0.5 | 0.5 | 0.7 | 51 | 0 | 0 | 0.14 | 0.9 | 0.7 | 0.4 | 0.8 | 0 | 0 | 0.5 | 0.68 | ED50 ([2]; cat, intravenous dose causing 50% neuromuscular block): 0.4 mg/kg; VB (vagal block) ([2]; in vivo): 70%; ΔBP (change in arterial blood pressure) ([2]; in vivo): −40%; ΔH (change in heart rate) ([2]; in vivo): 0%; ΔBP (change in arterial blood pressure) ([4]; in vivo): 0%; ΔH (change in heart rate) ([4]; in vivo): 0%; ED50 [4]: 0.085 mg/kg; ED50 [5]: 0.167 mg/kg
2 | C[N+]1(CC2CC2)[C@@H]2CC[C@H]1C[C@@H](OC(=O)CCCCCCC(=O)O[C@H]1C[C@H]3CC[C@@H](C1)[N+]3(C)CC1CC1)C2.[Br-].[Br-] (stereo partly drawn) [bis[N-(cyclopropylmethyl)tropanium-3α-yl]suberate dibromide, reference compound] | – | – | – | – | – | – | 9 | 1.4 | – | – | – | – | – | – | – | – | – | – | – | – | ED50 ([2]; Felis catus, iv): 0.155 mg/kg; VB (vagal block) [2, 8]: 80%; ΔBP (change in arterial blood pressure) [2, 8]: 0%; ΔH (change in heart rate) [2, 8]: 0%
3 | CCC(=O)Oc1ccc(C[N+]2(C)C3CCCC2CC(OC(=O)CCCCCC(=O)OC2CC4CCCC(C2)[N+]4(C)Cc2ccc(OC(=O)CC)c(OC(=O)CC)c2)C3)cc1OC(=O)CC.[Br-].[Br-] (centres unmarked) [bis[N-(3,4-dipropionyloxybenzyl)granataninium-3-yl]pimelate dibromide] | 2 | −6 | −3 | 0.45 | 0.35 | 0.5 | – | – | 30 | 0 | 0 | 0.7 | 0.5 | 0.5 | – | – | 0 | 0 | 0.4 | 0.45 | ED50 [5]: 0.5 mg/kg
4 | CC(=O)Oc1ccc(C[N+]2(C)C3CCCC2CC(OC(=O)CCCCCC(=O)OC2CC4CCCC(C2)[N+]4(C)Cc2ccc(OC(C)=O)c(OC(C)=O)c2)C3)cc1OC(C)=O.[Br-].[Br-] (centres unmarked) [bis[N-(3,4-diacetoxybenzyl)granataninium-3-yl]pimelate dibromide] | 0 | 0 | 0 | 0.175 | 0.4 | 0.45 | – | – | 48 | 0 | 0 | 0.193 | 1 | 0.7 | 0.55 | 1.2 | 0 | 0 | 0.6 | 0.72 | ΔBP (change in arterial blood pressure) ([4]; in vivo): 0%; ΔH (change in heart rate) ([4]; in vivo): 0%; ED50 [4]: 0.15 mg/kg; ED50 [5]: 0.266 mg/kg
5 | COc1ccc(CC2c3cc(OC)c(OC)cc3CC[N+]2(C)CCC(=O)OCCCCCOC(=O)CC[N+]2(C)CCc3cc(OC)c(OC)cc3C2Cc2ccc(OC)c(OC)c2)cc1OC (centres unmarked) [Atracurium, reference compound] | – | – | – | – | – | 1.5 | 4.8 | 2.7 | – | – | – | – | – | – | 7.5 | 3 | – | – | 5.7 | 2.7 | ED50 ([1]; Rattus norvegicus, iv): 0.32 mg/kg; VB (vagal block) ([1]; male, rat, in vivo): 0%; ΔBP (change in arterial blood pressure) ([1]; male, rat, in vivo): 0%; ΔH (change in heart rate) ([1]; male, rat, in vivo): 0%; RI (recovery index) ([1]; rat, in vivo): 2.9 min; ED50 ([2]; Felis catus, iv): 0.068 mg/kg; ΔBP (change in arterial blood pressure) ([2]; cat, in vivo): 0%; ΔH (change in heart rate) ([2]; cat, in vivo): 0%; ED50 ([4]; Primates, read-out: ED50): 0.186 mg/kg; ΔBP (change in arterial blood pressure) [4, 9]: 0%; ΔH (change in heart rate) [4, 9]: 0%; ED50 [5, 10]: 0.03 mg/kg; ΔBP (change in arterial blood pressure) [5, 9]: 0%; ΔH (change in heart rate) [5, 9]: 0%
6 | COc1cc(C[N+]2(C)[C@@H]3CC[C@H]2C[C@@H](OC(=O)CCCCCCCCCC(=O)O[C@H]2C[C@H]4CC[C@@H](C2)[N+]4(C)Cc2cc(OC)c(OC)c(OC)c2)C3)cc(OC)c1OC.[Br-].[Br-] (stereo partly drawn) [bis[N-(3,4,5-trimethoxybenzyl)tropanium-3α-yl]1,9-nonanedicarboxylate dibromide] | – | – | – | – | 1.8 | 0.8 | – | – | – | – | – | – | 2.4 | 1.5 | – | – | – | – | 2.5 | 1.3 | ED50 ([1]; Rattus norvegicus, iv): 0.18 mg/kg; VB (vagal block) [1, 11]: 10%; ΔBP (change in arterial blood pressure) [1, 11]: 0%; ΔH (change in heart rate) [1, 11]: 0%; ED50 ([3]; Sus scrofa, read-out: ED50): 0.31 mg/kg; VB (vagal block) [3, 9]: 40%; ΔBP (change in arterial blood pressure) [3, 9]: 0%; ΔH (change in heart rate) [3, 9]: 0%; ED50 [5, 10]: 0.07 mg/kg; ΔBP (change in arterial blood pressure) [5, 9]: 0%; ΔH (change in heart rate) [5, 9]: 0%
7 | C[N+]1(C)[C@@H]2CC[C@H]1C[C@@H](OC(=O)CCCCCCCCC(=O)O[C@H]1C[C@H]3CC[C@@H](C1)[N+]3(C)C)C2.[I-].[I-] [bis[N-methyltropanium-3α-yl]sebacate diiodide, reference compound] | – | – | – | – | – | – | 3.9 | 2.3 | – | – | – | – | – | – | – | – | – | – | – | – | ED50 ([2]; Felis catus, iv): 0.125 mg/kg; VB (vagal block) [2, 8]: 100%; ΔBP (change in arterial blood pressure) [2, 8]: 0%; ΔH (change in heart rate) [2, 8]: 0%
8 | CCC(=O)Oc1ccc(C[N+]2(C)[C@@H]3CC[C@H]2C[C@@H](OC(=O)CCCC(=O)O[C@H]2C[C@H]4CC[C@@H](C2)[N+]4(C)Cc2ccc(OC(=O)CC)c(OC(=O)CC)c2)C3)cc1OC(=O)CC.[Br-].[Br-] (stereo partly drawn) [bis[N-(3,4-dipropionyloxybenzyl)tropanium-3α-yl]glutarate dibromide] | – | – | – | – | 0.5 | 0.7 | – | – | – | – | – | – | 0.6 | 1.1 | – | – | – | – | 0.8 | 1 | ED50 ([1]; Rattus norvegicus, iv): 0.3 mg/kg; VB (vagal block) [1, 11]: 0%; ΔBP (change in arterial blood pressure) [1, 11]: 0%; ΔH (change in heart rate) [1, 11]: 0%; ED50 ([3]; Sus scrofa, read-out: ED50): 0.45 mg/kg; VB (vagal block) [3, 9]: 70%; ΔBP (change in arterial blood pressure) [3, 9]: 0%; ΔH (change in heart rate) [3, 9]: 0%; ED50 [5, 10]: 0.065 mg/kg; ΔBP (change in arterial blood pressure) [5, 9]: 0%; ΔH (change in heart rate) [5, 9]: 0%
